Each structure is given as a SMILES string. pIC50: −log10 of the molar value.

Common to all, as to assay type: cell-based
In one test the test system is p-P70S6K Thr389. The test is described as follows: AlphaLISA/MSD analysis of S6K phosphorylation in MDA-MB-468 cells. The note with it: Homo sapiens; MDA-MB-468 cells; read-out: pS6K IC50. How it is done: (§1) Cell culture and reagents. Cells were obtained from ATCC, grown in appropriate medium supplemented with 10% fetal bovine serum and 1% penicillin/streptomycin and maintained at 37 °C in a humidified incubator at 5% CO 2.
(§2) AlphaLISA and MesoScale Discovery (MSD) analysis of 4EBP1, S6K and AKT phosphorylation. mTOR substrate phosphorylation in MDA-MB-468 cells was assayed using AlphaLISA SureFire Ultra kits for p4EBP1 Thr37/46, p-P70S6K Thr389 and p-AKT1/2/3 Ser473 (PerkinElmer), and MSD Multi-Array Assay Systems for Phospho-4EBP1 (Thr37/46) and Phospho-AKT (Ser473) (MSD). Cells were seeded at 25,000 cells per well and exposed the next day to serial three-fold dilutions of compounds in complete medium with 0.1% dimethylsulfoxide (DMSO). After indicated incubation times, cells were lysed and AlphaLISA or MSD performed according to the manufacturers’ protocols. Samples were read using an EnVision Multilabel Plate Reader (PerkinElmer) using standard AlphaLISA settings or using an MSD plate reader. Data were plotted as a function of logM [compound] with a sigmoidal concentration response (variable slope) model fitted to the data to estimate the inhibitor half-maximum effective concentration (EC 50) in Prism 7 (GraphPad). Alternatively, results were analyzed as percentage of control in which 0% was set as signal from 1 μM Torin1 and 100% was set as the mean of DMSO wells on each plate, and inhibitor EC 50 was estimated as described
(Alpha assays give light when donor and acceptor beads are brought close together.)

The subject of test [1] is AKT S473 phosphorylation (mTORC2). The test is described as follows: AlphaLISA/MSD analysis of AKT phosphorylation in MDA-MB-468 cells. The following applies: Homo sapiens; MDA-MB-468 cells; read-out: pAKT IC50. How it is done:
as §1, §2

Test [2] has as its system 4EBP1 T37/T46 phosphorylation (mTORC1). The test is described as follows: AlphaLISA/MSD analysis of 4EBP1 phosphorylation in MDA-MB-468 cells. The following applies: for pIC50: Homo sapiens, MDA-MB-468 cells, read-out: p4EBP1 IC50. How it is done: as §1, §2

A word on the pIC50: it is −log10 of the IC50, conventionally taken in molar units. `CO[C@H]1C[C@@H]2CC[C@@H](C)[C@@](O)(O2)C(=O)C(=O)N2CCCC[C@H]2C(=O)O[C@H]([C@H](C)C[C@@H]2CC[C@@H](OC(=O)NCCOCCOCCOCCOCCOCCOCCOCCOCCC(=O)NCCS(=O)(=O)c3ccc(C(=O)N4CCOc5ccc(-c6ccc(N)nc6)cc5C4)c(C)c3F)[C@H](OC)C2)CC(=O)[C@H](C)/C=C(\C)[C@@H](O)[C@@H](OC)C(=O)[C@H](C)C[C@H](C)/C=C/C=C/C=C/1C` [compound 31]: the pIC50 is 9.64 in the test with p-P70S6K Thr389, 8.54 in test [1] and 9.15 in test [2].

As to `CO[C@H]1C[C@@H]2CC[C@@H](C)[C@@](O)(O2)C(=O)C(=O)N2CCCC[C@H]2C(=O)O[C@H]([C@H](C)C[C@@H]2CC[C@@H](OCCCCc3cn(CCOCCOCCOCCOCCOCCOCCC(=O)NCCCCn4nc(-c5cc6cc(O)ccc6[nH]5)c5c(N)ncnc54)nn3)[C@H](OC)C2)CC(=O)[C@H](C)/C=C(\C)[C@@H](O)[C@@H](OC)C(=O)[C@H](C)C[C@H](C)/C=C/C=C/C=C/1C` [compound 25], the values for the pIC50 (in the test with p-P70S6K Thr389; in test [1]; in test [2]) were 9.23, 6.92 and 6.43, respectively. Further, the “reduction in mTORC1 p4EBP1 activity on going from 8 PEG units to 6 PEG units” value in test [2] (versus the 8 PEG analog) is over 250 fold.

In the case of `CO[C@@H](C[C@@H]1CC[C@@H](C)[C@](O)(C(=O)C(=O)N2CCCC[C@H]2C(=O)O)O1)/C(C)=C/C=C/C=C/[C@@H](C)C[C@@H](C)C(=O)[C@H](OC)[C@H](O)/C(C)=C/[C@@H](C)C(=O)/C=C\[C@H](C)C[C@@H]1CC[C@@H](OCCCCc2cn(CCOCCOCCOCCOCCOCCOCCOCCOCCC(=O)NCCCCn3nc(-c4ccc5oc(N)nc5c4)c4c(N)ncnc43)nn2)[C@H](OC)C1` [compound 32], the figures for the pIC50 (with p-P70S6K Thr389; in test [1]; in test [2]) were 7.23, 6.35 and 6.74, respectively.

Consider `CO[C@H]1C[C@@H]2CC[C@@H](C)[C@@](O)(O2)C(=O)C(=O)N2CCCC[C@H]2C(=O)O[C@H]([C@H](C)C[C@@H]2CC[C@@H](OC(=O)NCCOCCOCCOCCOCCOCCOCCOCCOCCC(=O)N3CCc4cc(Cn5nc(-c6ccc7oc(N)nc7c6)c6c(N)ncnc65)ccc4C3)[C@H](OC)C2)CC(=O)[C@H](C)/C=C(\C)[C@@H](O)[C@@H](OC)C(=O)[C@H](C)C[C@H](C)/C=C/C=C/C=C/1C` [compound 30], for which the pIC50 was 9.72 in the test with p-P70S6K Thr389, 8.33 in test [1] and 9.38 in test [2].

`CO[C@H]1C[C@@H]2CC[C@@H](C)[C@@](O)(O2)C(=O)C(=O)N2CCCC[C@H]2C(=O)O[C@H]([C@H](C)C[C@@H]2CC[C@@H](OCCCCc3cn(CCOCCOCCOCCOCCOCCOCCOCCOCCC(=O)NCCCCn4nc(-c5cnc6[nH]ccc6c5)c5c(N)ncnc54)nn3)[C@H](OC)C2)CC(=O)[C@H](C)/C=C(\C)[C@@H](O)[C@@H](OC)C(=O)[C@H](C)C[C@H](C)/C=C/C=C/C=C/1C` [compound 20]: the results for the pIC50 (in the test with p-P70S6K Thr389; in test [1]; in test [2]) were 9.66, 7.77 and 9.00, respectively.

For `CO[C@H]1C[C@@H]2CC[C@@H](C)[C@@](O)(O2)C(=O)C(=O)N2CCCC[C@H]2C(=O)O[C@H]([C@H](C)C[C@@H]2CC[C@@H](OCCCCc3cn(CCOCCOCCOCCOCCOCCOCCOCCOCCC(=O)N4CCc5cc(Cn6nc(-c7ccc8oc(N)nc8c7)c7c(N)ncnc76)ccc5C4)nn3)[C@H](OC)C2)CC(=O)[C@H](C)/C=C(\C)[C@@H](O)[C@@H](OC)C(=O)[C@H](C)C[C@H](C)/C=C/C=C/C=C/1C` [compound 21], the results for the pIC50 (in the test with p-P70S6K Thr389; in test [1]; in test [2]) were 9.89, 8.06 and 9.36, respectively.

On to `CO[C@H]1C[C@@H]2CC[C@@H](C)[C@@](O)(O2)C(=O)C(=O)N2CCCC[C@H]2C(=O)O[C@H]([C@H](C)C[C@@H]2CC[C@@H](OCCCCc3cn(CCOCCOCCOCCOCCOCCOCCOCCOCCC(=O)NCCCCn4nc(-c5ccc6oc(N)nc6c5)c5c(N)ncnc54)nn3)[C@H](OC)C2)CC(=O)[C@H](C)/C=C(\C)[C@@H](O)[C@@H](OC)C(=O)[C@H](C)C[C@H](C)/C=C/C=C/C=C/1C` [compound 16], for which the values for the pIC50 (in the test with p-P70S6K Thr389; in test [1]; in test [2]) were 9.38, 8.51 and 8.96, respectively.

The record behind these values is article PMC9841523 (Journal of Medicinal Chemistry, 2022).
